{
  "source": "patent US10046050B2",
  "about": "“Targeting immunotherapy for amyloidosis” (UNIVERSITY OF TENNESSEE RESEARCH FOUNDATION, priority 2014, dated 2018)",
  "key": {"mAb 7D8": {"tested_on": "mAb 7D8", "test": "ELISA binding of 7D8 to peptopes dried on microplates", "conditions": "both assays", "experimental": "Peptides (p75-78 and control reagents; peptide 39 [CGGHEDT] (SEQ ID NO: 54), peptide 41 [CGGHEDTMADQE] (SEQ ID NO: 55) and peptide p5 (SEQ ID NO: 1), were prepared at 1 μg/ml in PBS and 50 μl was added to each well of 1 96-well microplate (Costar EIA/RIA high binding). The peptides were dried onto the well at 37° C. overnight. Sample wells were blocked for 1 h by addition of 200 μL of 1% BSA in PBS. Primary antibodies (7D8 or biotinylated 7D8) and secondary antibodies (biotinylated goat anti mouse) were added in 100 μL of a diluent of 1% BSA and 0.05% tween 20 in PBS. The 7D8 primary antibody was tested with a 1:2 dilution series beginning at 50 nM. A 1/3000 dilution of the secondary biotinylated goat anti-mouse IgG antibody (Sigma) was added for 1 h and the microplate washed. When the biotinylated 7D8 mAb was used the secondary antibody step was omitted. Binding was visualized by addition of a 1/1000 dilution of europium/streptavidin (Perkin Elmer) for 1 h and developed with enhancement solution (Perkin Elmer) before quantifying the signal using a time-resolved fluorescence plate reader (Wallac)."}, "human ATTR amyloid": {"tested_on": "human ATTR amyloid", "test": "Immunohistochemistry of biotinyl-7D8 on formalin-fixed tissue sections", "assay_type": "binding", "conditions": "label = pre-treatment peptide, or 7D8 alone", "experimental": "(§1) The binding of biotinylated 7D8 mAb with autopsy-derived, formalin-fixed, paraffin-embedded tissue sections containing, ATTR, ALκ or ALλ was assessed immunohistochemically. Consecutive tissue sections were stained with: Congo red; biotinylated 7D8 alone; 7D8 with the control peptide p5; or, 7D8 mAb with peptope p75 pretreatment. Briefly, six μm-thick tissue sections were subjected to antigen retrieval by incubation in CitraPlus solution (BioGenex, San Ramon, Calif.) for 30 min at 90° C. Unlabeled peptope p75 was added to the tissue at ˜3 μg/mL and incubated overnight at 4° C. Unbound reagent was removed by washing in PBST for 30 min. Tissues sections (with or without peptope pretreatment) were immunostained by addition of 3 μg/mL biotinylated 7D8 mAb. Slides were developed by addition of streptavidin-HRP (Vectastain Elite ABC kit, Vector Labs) followed by 3,3′-diaminobezidene (Vector Labs) and examined using a Leica DM500 microscope."}, "human Den ALλ amyloid": {"tested_on": "human Den ALλ amyloid", "test": "Immunohistochemistry of biotinyl-7D8 on formalin-fixed tissue sections", "assay_type": "binding", "conditions": "thyroid, label = pre-treatment peptide, or 7D8 alone", "experimental": "as §1"}, "human Tal ALκ amyloid": {"tested_on": "human Tal ALκ amyloid", "test": "Immunohistochemistry of biotinyl-7D8 on formalin-fixed tissue sections", "assay_type": "binding", "conditions": "kidney, label = pre-treatment peptide, or 7D8 alone", "experimental": "as §1"}},
  "data": [
    {"substance": "KAQKAQAKQAKQAQKAQKAQAKQAKQ (KAQKAQAKQAKQAQKAQKAQAKQAKQ; Peptide p5)", "values": [
      {"measurement": "binding of 7D8 and biotinyl-7D8", "setting": "mAb 7D8", "result": "no binding"},
      {"measurement": "immunohistochemical staining with biotinyl-7D8", "setting": "human ATTR amyloid; Gre ATTR, esophagus", "result": "decreased"},
      {"measurement": "immunohistochemical staining with biotinyl-7D8", "setting": "human ATTR amyloid; Gre ATTR, heart", "result": "partially inhibited"},
      {"measurement": "immunohistochemical staining with biotinyl-7D8", "setting": "human ATTR amyloid; Ken ATTR, heart", "result": "background 7D8 staining was diminished"},
      {"measurement": "immunohistochemical staining with biotinyl-7D8", "setting": "human ATTR amyloid; Sno ATTR, heart", "result": "background 7D8 staining was diminished"},
      {"measurement": "immunohistochemical staining with biotinyl-7D8", "setting": "human Den ALλ amyloid", "result": "inhibited this effect"},
      {"measurement": "immunohistochemical staining with biotinyl-7D8", "setting": "human Tal ALκ amyloid", "result": "inhibited this effect"}
    ]}
  ]
}
